The values below come from ChEMBL document CHEMBL4265914, “Discovery of selective urokinase plasminogen activator (uPA) inhibitors as a potential treatment for multiple sclerosis” (Bioorg Med Chem Lett, 2018).

Data set [1] addresses Urokinase-type plasminogen activator (Homo sapiens, UniProt P00749). Nature of the data set: Inhibition of human uPA.
Data set [2] deals with Tissue-type plasminogen activator (Homo sapiens, UniProt P00750). Nature of the data set: Inhibition of human tPA.
In data set [3] the target is Plasminogen (Homo sapiens, UniProt P00747). Nature of the data set: Inhibition of human plasmin.
The subject of data set [4] is Mus musculus. Nature of the data set: Prevention of multiple sclerosis development in chronic SJL mouse EAE model at 10 to 25 mg/kg, po bid. It counts as functional, organism-based.
Data set [5] addresses Plasminogen (Mus musculus, UniProt P20918). Nature of the data set: Inhibition of mouse plasmin.
In data set [6] the target is Urokinase-type plasminogen activator (Mus musculus, UniProt P06869). Put plainly: Inhibition of mouse uPA.
Data set [7] relates to Mus musculus. Nature of the data set: Prevention of multiple sclerosis development in acute SJL mouse EAE model at 25 to 50 mg/kg, po bid. It counts as functional, organism-based.
Data set [8] concerns the target Tissue-type plasminogen activator (Mus musculus, UniProt P11214). Nature of the data set: Inhibition of mouse tPA.
A short description of data set [9]: Oral bioavailability in rat at 2 mg/kg. The format is ADME, organism-based. The conditions noted are these: in vivo.
In data set [10] the test system is Rattus norvegicus. Nature of the data set: Volume of distribution in rat at 2 mg/kg, po. It counts as ADME, organism-based. The conditions noted are these: in vivo.
For data set [11], the system named is Mus musculus. Nature of the data set: Prevention of multiple sclerosis development in chronic SJL mouse EAE model at 50 mg/kg, po bid. It counts as functional, organism-based.
Data set [12] deals with Rattus norvegicus. Put plainly: Total AUC in rat at 2 mg/kg, po. The conditions noted are these: in vivo. It counts as ADME, organism-based. Set-up: dose 2 mg/kg, route oral, time AUCmax.
Data set [13] can be described thus: Clearance in rat at 2 mg/kg, po. The format is ADME, organism-based. The conditions noted are these: in vivo.
Data set [14] is described as follows: Half life in rat at 2 mg/kg, po. The conditions noted are these: in vivo. The format is ADME, organism-based.
Data set [15] is described as follows: Cmax in rat at 2 mg/kg, po. The format is ADME, organism-based. The conditions noted are these: in vivo. Set-up: dose 2 mg/kg, route oral.

Activity calls are given as the source filed them. The calls are words filed in the database; no cut-off is given here.

Tissue-type plasminogen activator (Homo sapiens, UniProt P00750), sequence (P00750 whole entry): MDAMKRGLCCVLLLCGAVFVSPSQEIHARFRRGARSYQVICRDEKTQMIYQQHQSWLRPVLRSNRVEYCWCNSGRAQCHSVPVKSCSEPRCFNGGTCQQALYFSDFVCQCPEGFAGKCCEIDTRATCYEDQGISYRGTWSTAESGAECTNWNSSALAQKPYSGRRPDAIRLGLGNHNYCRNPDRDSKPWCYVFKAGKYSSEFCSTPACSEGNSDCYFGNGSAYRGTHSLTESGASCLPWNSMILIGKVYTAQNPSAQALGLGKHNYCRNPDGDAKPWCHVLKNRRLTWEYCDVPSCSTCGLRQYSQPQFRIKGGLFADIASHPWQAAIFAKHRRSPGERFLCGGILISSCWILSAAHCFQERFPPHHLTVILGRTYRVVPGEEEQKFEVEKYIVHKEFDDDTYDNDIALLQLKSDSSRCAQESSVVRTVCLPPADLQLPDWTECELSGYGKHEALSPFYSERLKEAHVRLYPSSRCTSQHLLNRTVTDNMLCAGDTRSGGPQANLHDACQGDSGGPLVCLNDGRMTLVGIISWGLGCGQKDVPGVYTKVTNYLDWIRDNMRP
Plasminogen (Homo sapiens, UniProt P00747), sequence (P00747 97-580 limits assumed): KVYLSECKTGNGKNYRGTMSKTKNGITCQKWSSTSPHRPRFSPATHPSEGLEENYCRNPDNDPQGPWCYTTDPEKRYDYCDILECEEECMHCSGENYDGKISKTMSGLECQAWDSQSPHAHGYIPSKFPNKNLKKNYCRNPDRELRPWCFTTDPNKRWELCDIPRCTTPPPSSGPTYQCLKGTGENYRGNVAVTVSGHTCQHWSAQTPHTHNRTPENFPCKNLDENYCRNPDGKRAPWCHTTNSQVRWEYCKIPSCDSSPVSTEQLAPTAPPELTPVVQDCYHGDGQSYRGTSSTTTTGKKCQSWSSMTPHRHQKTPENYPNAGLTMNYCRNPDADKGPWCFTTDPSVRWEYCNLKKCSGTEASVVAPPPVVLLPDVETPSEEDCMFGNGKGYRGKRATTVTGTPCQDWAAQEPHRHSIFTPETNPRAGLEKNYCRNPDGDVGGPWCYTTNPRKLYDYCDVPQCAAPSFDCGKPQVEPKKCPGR
Plasminogen (Homo sapiens, UniProt P00747), sequence (P00747 581-810 limits assumed): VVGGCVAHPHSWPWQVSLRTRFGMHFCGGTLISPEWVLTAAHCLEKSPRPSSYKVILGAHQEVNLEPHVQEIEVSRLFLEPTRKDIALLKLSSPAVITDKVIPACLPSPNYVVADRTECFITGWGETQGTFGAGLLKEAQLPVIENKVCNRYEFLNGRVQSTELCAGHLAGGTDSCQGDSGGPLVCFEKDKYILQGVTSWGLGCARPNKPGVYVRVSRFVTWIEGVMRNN
Urokinase-type plasminogen activator (Mus musculus, UniProt P06869), sequence (P06869 21-178 limits assumed): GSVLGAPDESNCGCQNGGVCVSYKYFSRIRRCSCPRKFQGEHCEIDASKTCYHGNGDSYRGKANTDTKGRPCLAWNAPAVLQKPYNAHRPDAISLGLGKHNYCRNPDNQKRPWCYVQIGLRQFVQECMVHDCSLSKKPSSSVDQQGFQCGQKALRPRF
Urokinase-type plasminogen activator (Mus musculus, UniProt P06869), sequence (P06869 180-433 limits assumed): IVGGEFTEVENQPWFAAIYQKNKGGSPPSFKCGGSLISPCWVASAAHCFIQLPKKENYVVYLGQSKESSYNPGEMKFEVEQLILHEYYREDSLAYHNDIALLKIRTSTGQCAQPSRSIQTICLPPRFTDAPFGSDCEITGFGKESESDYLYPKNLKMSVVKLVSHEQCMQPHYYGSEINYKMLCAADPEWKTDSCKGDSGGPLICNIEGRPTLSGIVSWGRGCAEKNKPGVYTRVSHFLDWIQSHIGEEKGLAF
Tissue-type plasminogen activator (Mus musculus, UniProt P11214), sequence (P11214 whole entry): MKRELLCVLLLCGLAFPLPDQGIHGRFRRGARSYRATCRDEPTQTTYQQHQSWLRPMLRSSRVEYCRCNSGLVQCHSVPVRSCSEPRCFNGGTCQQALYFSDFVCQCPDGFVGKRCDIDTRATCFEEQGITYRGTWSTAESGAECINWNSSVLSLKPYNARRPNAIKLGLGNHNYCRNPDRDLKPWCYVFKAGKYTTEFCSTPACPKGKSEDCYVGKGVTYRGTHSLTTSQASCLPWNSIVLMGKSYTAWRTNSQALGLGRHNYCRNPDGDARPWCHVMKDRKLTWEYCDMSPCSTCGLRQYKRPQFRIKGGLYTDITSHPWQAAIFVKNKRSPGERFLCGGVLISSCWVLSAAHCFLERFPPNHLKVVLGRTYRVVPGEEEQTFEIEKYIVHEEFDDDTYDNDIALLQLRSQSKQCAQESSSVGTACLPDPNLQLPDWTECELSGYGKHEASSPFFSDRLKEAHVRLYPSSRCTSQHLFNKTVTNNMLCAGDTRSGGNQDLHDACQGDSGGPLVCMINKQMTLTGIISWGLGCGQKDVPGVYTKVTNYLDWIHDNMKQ
Plasminogen (Mus musculus, UniProt P20918), sequence (P20918 98-581 limits assumed): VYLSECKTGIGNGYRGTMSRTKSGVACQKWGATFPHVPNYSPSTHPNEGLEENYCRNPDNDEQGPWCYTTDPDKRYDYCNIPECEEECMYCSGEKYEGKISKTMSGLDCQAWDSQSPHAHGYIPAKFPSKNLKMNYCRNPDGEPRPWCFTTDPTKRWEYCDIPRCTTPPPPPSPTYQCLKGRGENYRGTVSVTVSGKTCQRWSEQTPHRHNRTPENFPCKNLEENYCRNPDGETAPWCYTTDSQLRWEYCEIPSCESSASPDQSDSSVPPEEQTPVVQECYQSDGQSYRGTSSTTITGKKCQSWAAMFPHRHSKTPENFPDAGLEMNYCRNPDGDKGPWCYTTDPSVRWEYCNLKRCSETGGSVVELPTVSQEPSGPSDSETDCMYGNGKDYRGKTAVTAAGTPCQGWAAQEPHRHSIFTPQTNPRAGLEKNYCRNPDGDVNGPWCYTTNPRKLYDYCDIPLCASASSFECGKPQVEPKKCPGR
Plasminogen (Mus musculus, UniProt P20918), sequence (P20918 582-812 limits assumed): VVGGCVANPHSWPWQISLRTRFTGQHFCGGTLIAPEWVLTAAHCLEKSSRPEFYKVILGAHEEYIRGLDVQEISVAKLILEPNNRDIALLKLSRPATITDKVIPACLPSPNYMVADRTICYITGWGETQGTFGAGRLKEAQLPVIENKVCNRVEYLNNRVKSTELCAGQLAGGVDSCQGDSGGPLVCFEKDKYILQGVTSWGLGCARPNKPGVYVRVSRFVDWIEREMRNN

By IC50 is commonly meant the concentration that inhibits the measured activity by half. A high value points to a need for much substance. For `NCc1cccc(-c2cccc(Oc3nc(OCC(=O)O)c(F)cc3F)c2)c1`, half-maximal inhibition in data set [1] (IC50) was put at 3.28 µM.

`CC(C)(C)[C@@H](Oc1nc(Oc2cc(C#N)cc(-c3cccc(CN)c3)c2)c(F)cc1F)C(=O)O`: the half-maximal inhibitory concentration (IC50) in [2] was found to be 5.7 µM; in data set [1], 0.034 µM; on Plasminogen [3], 5.4 µM.

Consider `C[C@@H](Oc1nc(Oc2cccc(-c3cccc(CN)c3)c2)c(F)cc1F)C(=O)O`, for which the figures for the IC50 (in [1]; on Plasminogen [3]) were 0.36 µM and 5.1 µM, respectively.

In general, bioavailability refers to dose-corrected exposure relative to a reference, in per cent. Low readings indicate little systemic uptake, high ones much systemic uptake. What is called AUC is the area under the concentration-time curve, a measure of exposure. A high value points to more exposure. By CL/F is commonly meant clearance divided by bioavailability, as obtained after extravascular dosing. What is called half-life is the time in which the quantity being followed falls by half. A higher half-life goes with slow loss. For `CC[C@@H](Oc1nc(Oc2cc(C)cc(-c3cccc(CN)c3)c2)c(F)cc1F)C(=O)O`, the outcome in the data set with Mus musculus [4] was inactive. Further, the IC50 on Plasminogen [5] came to 1.6 µM; in data set [6], 0.41 µM; in data set [8], 0.91 µM; in data set [2], 1.58 µM; in data set [1], 0.079 µM; against Plasminogen [3] it was 1.33 µM. In addition, the outcome in the data set on Mus musculus [7] and in the data set on Mus musculus [11] was Active. In addition, in data set [9], the bioavailability stood at 30%. This compound came in with a Vd in the data set on Rattus norvegicus [10] of 0.6 L/kg. For the same compound, the AUC with Rattus norvegicus [12] was 13200 ng·h/mL. In data set [13], this compound returned an apparent clearance (CL/F) of 4 mL/min/kg. The same compound had a half-life in [14] of 2.2 h.

Regarding `CC[C@H](Oc1nc(Oc2cccc(-c3cccc(CN)c3)c2)c(F)cc1F)C(=O)O`, the half-inhibitory concentration (IC50) in data set [2] is over 30 µM; in data set [1], 7.26 µM; against Plasminogen [3], over 30 µM.

Turning to `Cc1cc(Oc2nc(O[C@@H](C(=O)O)C(C)(C)C)c(F)cc2F)cc(-c2cccc(CN)c2)c1`, the IC50 worked out at 0.47 µM in data set [2], 0.051 µM in data set [1] and 1.9 µM against Plasminogen [3].

Take `CC(C)(C)[C@@H](Oc1nc(Oc2cccc(-c3cccc(CN)c3)c2)c(F)cc1F)C(=O)O`: the IC50 in [2] was 1.45 µM; in data set [1], 0.084 µM; against Plasminogen [3], 5.45 µM.

As to `COc1cc(Oc2nc(O[C@@H](C(=O)O)C(C)(C)C)c(F)cc2F)cc(-c2cccc(CN)c2)c1`, the values for the IC50 (in data set [2]; in [1]; against Plasminogen [3]) were 1.85 µM, 0.023 µM and 3.32 µM, respectively.

Usually Cmax stands for the highest concentration seen after dosing. Turning to `CC[C@@H](Oc1nc(Oc2cccc(-c3cccc(CN)c3)c2)c(F)cc1F)C(=O)O`, the Cmax in data set [15] stood at 640 ng/mL. Also, the bioavailability in [9] amounted to 55%. The compound also had a Vd in the data set on Rattus norvegicus [10] of 0.76 L/kg. Further, in the data set on Rattus norvegicus [12], the AUC turned out to be 2200 ng·h/mL. The IC50 in data set [2] stood at 1.6 µM; in data set [1] it was 0.237 µM; on Plasminogen [3], 1.85 µM. Moreover, in data set [13], the CL/F came to 8.4 mL/min/kg. Besides, in data set [14], the half-life is 2.8 h.
